What was measured:
[1] = molecular target: Arabidopsis thaliana SHMT; assay: SHMT activity assay (ED50 SHMT), coupled with N5,N10-CH2-THF dehydrogenase, NADH at 340 nm; type: biochemical; conditions: values given as upper bounds
In short: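 His-tagged SHMT purified on Ni-NTA. NADH formation followed at 340 nm for 30 min; ED50 from inhibition of initial velocity.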

[2] = tested on: SETFA, AMARE, POLCO, CHEAL, GALAP; assay: Greenhouse herbicidal test, post-emergence, weed panel; type: in vivo; conditions: application rate 1 kg/ha, scale 0 to 100
Source text: (§1) The seeds of the test plants were sown separately for each species. For the post-emergence treatment, the test plants were first grown to a height of 2 to 5 cm, depending on the plant habit, and only then treated with the active ingredients which had been suspended or emulsified in water. For this purpose, the test plants were either sown directly and grown in the same containers, or they were first grown separately as seedlings and transplanted into the test containers a few days prior to treatment. Depending on the species, the plants were kept at 10-25° C. or 20-35° C. The test period extended over 8 to 9 days. During this time, the plants were tended, and their response to the individual treatments was evaluated. Evaluation was carried out using a scale from 0 to 100. 100 means no emergence of the plants, or complete destruction of at least the aerial moieties, and 0 means no damage, or normal course of growth. A good herbicidal activity is given at values of at least 70 and a very good herbicidal activity is given at values of at least 85. The plants used in the greenhouse experiments belonged to the following species: [table]

[3] = tested on: AMARE (Amaranthus retroflexus); assay: Greenhouse herbicidal test, post-emergence, AMARE; type: in vivo; conditions: Amaranthus retroflexus, application rate 1 kg/ha, scale 0 to 100, read-out: herbicidal activity against AMARE
Source text: as §1

[4] = tested on: POLCO (Poligonum convolvulus); assay: Greenhouse herbicidal test, post-emergence, POLCO; type: in vivo; conditions: Poligonum convolvulus, application rate 1 kg/ha, scale 0 to 100, read-out: herbicidal activity against POLCO
Source text: as §1

[5] = tested on: CHEAL (Chenopodium album); assay: Greenhouse herbicidal test, post-emergence, CHEAL; type: in vivo; conditions: Chenopodium album, application rate 1 kg/ha, scale 0 to 100, read-out: herbicidal activity against CHEAL
Source text: as §1

SETFA (Setaria faberi) = assay: Greenhouse herbicidal test, post-emergence, SETFA; type: in vivo; conditions: application rate 1 kg/ha, scale 0 to 100, read-out: herbicidal activity against SETFA
Source text: as §1

[6] = Arabidopsis thaliana SHMT enzyme assay

SMILES | EC50 ([1]; Table 2) [nM] | herbicidal activity against at least three of the weeds SETFA, AMARE, POLCO, CHEAL, GALAP [2] | pest or weed control at 1000 g/ha [3] [%] | pest or weed control at 1000 g/ha [4] [%] | pest or weed control at 1000 g/ha [5] [%] | EC50 [1, 6] [nM] | pest or weed control at 1000 g/ha (SETFA (Setaria faberi)) [%]
Cc1n[nH]c2c1C(c1cc(C#N)cc(C#N)c1)(C1(F)CCC1)C(C#N)=C(N)O2 (stereo not drawn) [Compound 2.569] | < 100 | good or very good | ≥ 85 | ≥ 85 | ≥ 85 | – | –
CCC(=O)N(C)c1cc(C#N)cc(C2(C3CCC3)C(C#N)=C(N)Oc3[nH]nc(C)c32)c1 (stereo not drawn) [Compound 2.611] | < 10 | good or very good | ≥ 85 | ≥ 85 | ≥ 85 | – | –
COCC(=O)N(C)c1cc(C#N)cc(C2(C3CCC3)C(C#N)=C(N)Oc3[nH]nc(C)c32)c1 (stereo not drawn) [Compound 2.615] | < 10 | good or very good | ≥ 85 | ≥ 85 | ≥ 85 | – | –
Cc1n[nH]c2c1C(c1cc(C#N)cc(N(C)C(=O)CC#N)c1)(C1CCC1)C(C#N)=C(N)O2 (stereo not drawn) [Compound 2.635] | < 10 | good or very good | ≥ 85 | – | ≥ 85 | – | –
Cc1n[nH]c2c1C(c1cc(C#N)cc(N(C)C(=O)CC#N)c1)(C(C)C)C(C#N)=C(N)O2 (stereo not drawn) [Compound 2.662] | – | good or very good | ≥ 85 | – | ≥ 85 | < 10 | ≥ 85
Cc1n[nH]c2c1C(c1cc(C#N)cc(N(C)C(=O)CCC#N)c1)(C(C)C)C(C#N)=C(N)O2 (stereo not drawn) [Compound 2.663] | – | good or very good | ≥ 85 | – | ≥ 70 | < 10 | ≥ 85
Cc1n[nH]c2c1C(c1cc(C#N)cc(N(C)C(=O)CCCC#N)c1)(C(C)C)C(C#N)=C(N)O2 (stereo not drawn) [Compound 2.664] | – | good or very good | ≥ 85 | – | ≥ 85 | < 10 | ≥ 85
Cc1n[nH]c2c1C(c1cc(C#N)cc(CCCC#N)c1)(C(C)C)C(C#N)=C(N)O2 (stereo not drawn) [Compound 2.675] | – | good or very good | ≥ 85 | – | ≥ 85 | < 10 | ≥ 70
COCC(=O)N(C)c1cc(C#N)cc(C2(C(C)C)C(C#N)=C(N)Oc3[nH]nc(C)c32)c1 (stereo not drawn) [Compound 2.688] | – | good or very good | ≥ 85 | – | ≥ 85 | < 10 | ≥ 85
CC(=O)NCC(=O)N(C)c1cc(C#N)cc(C2(C3CCC3)C(C#N)=C(N)Oc3[nH]nc(C)c32)c1 (stereo not drawn) [Compound 2.709] | – | good or very good | ≥ 85 | – | ≥ 85 | < 100 | ≥ 70
Cc1n[nH]c2c1C(c1cc(Br)cc(N(C)C(=O)CC#N)c1)(C1CCC1)C(C#N)=C(N)O2 (stereo not drawn) [Compound 2.729] | – | good or very good | ≥ 85 | – | ≥ 85 | < 10 | ≥ 70
